{"source": "ChEMBL document CHEMBL3112509", "about": "“Synthesis and antimicrobial activity of (1,4-phenylene)bis(arylsulfonylpyrazoles and isoxazoles)” (2014)", "type_in_all_cases": "functional", "key": {"Penicillium chrysogenum [1]": {"test_system": "Penicillium chrysogenum", "assay": "Antifungal activity against Penicillium chrysogenum at 100 ug/well after 48 hrs by agar well diffusion method", "details": "read-out: DIZ"}, "Penicillium chrysogenum [2]": {"test_system": "Penicillium chrysogenum", "assay": "Antifungal activity against Penicillium chrysogenum at 50 ug/well after 48 hrs by agar well diffusion method", "details": "read-out: DIZ"}, "Aspergillus niger [3]": {"test_system": "Aspergillus niger", "assay": "Antifungal activity against Aspergillus niger at 50 ug/well after 48 hrs by agar well diffusion method", "details": "read-out: DIZ"}, "Aspergillus niger [4]": {"test_system": "Aspergillus niger", "assay": "Antifungal activity against Aspergillus niger at 100 ug/well after 48 hrs by agar well diffusion method", "details": "read-out: DIZ"}, "Klebsiella pneumoniae [5]": {"test_system": "Klebsiella pneumoniae", "assay": "Antibacterial activity against Klebsiella pneumoniae at 100 ug/well after 24 hrs by agar well diffusion method", "details": "for zone of inhibition at 100 µg/disc: read-out: DIZ"}, "Klebsiella pneumoniae [6]": {"test_system": "Klebsiella pneumoniae", "assay": "Antibacterial activity against Klebsiella pneumoniae at 50 ug/well after 24 hrs by agar well diffusion method", "details": "for zone of inhibition at 50 µg/disc: read-out: DIZ"}, "Pseudomonas aeruginosa [7]": {"test_system": "Pseudomonas aeruginosa", "assay": "Antibacterial activity against Pseudomonas aeruginosa at 100 ug/well after 24 hrs by agar well diffusion method", "details": "for zone of inhibition at 100 µg/disc: read-out: DIZ"}, "Pseudomonas aeruginosa [8]": {"test_system": "Pseudomonas aeruginosa", "assay": "Antibacterial activity against Pseudomonas aeruginosa at 50 ug/well after 24 hrs by agar well diffusion method", "details": "for zone of inhibition at 50 µg/disc: read-out: DIZ"}, "Bacillus subtilis [9]": {"test_system": "Bacillus subtilis", "assay": "Antibacterial activity against Bacillus subtilis at 100 ug/well after 24 hrs by agar well diffusion method", "details": "for zone of inhibition at 100 µg/disc: read-out: DIZ"}, "Bacillus subtilis [10]": {"test_system": "Bacillus subtilis", "assay": "Antibacterial activity against Bacillus subtilis at 50 ug/well after 24 hrs by agar well diffusion method", "details": "for zone of inhibition at 50 µg/disc: read-out: DIZ"}, "Staphylococcus aureus [11]": {"test_system": "Staphylococcus aureus", "assay": "Antibacterial activity against Staphylococcus aureus at 100 ug/well after 24 hrs by agar well diffusion method", "details": "for zone of inhibition at 100 µg/disc: read-out: DIZ"}, "Staphylococcus aureus [12]": {"test_system": "Staphylococcus aureus", "assay": "Antibacterial activity against Staphylococcus aureus at 50 ug/well after 24 hrs by agar well diffusion method", "details": "for zone of inhibition at 50 µg/disc: read-out: DIZ"}, "Penicillium chrysogenum [13]": {"test_system": "Penicillium chrysogenum", "assay": "Antifungal activity against Penicillium chrysogenum after 48 hrs by broth dilution test"}, "Aspergillus niger [14]": {"test_system": "Aspergillus niger", "assay": "Antifungal activity against Aspergillus niger after 48 hrs by broth dilution test"}}, "note": "Active and inactive are the calls of the source. The rule behind the calls is not given here."}
{"smiles": "COc1ccc(C2=NN(c3ccccc3)C(c3ccc(C4C(S(=O)(=O)c5ccc(C)cc5)C(c5ccc(OC)cc5)=NN4c4ccccc4)cc3)C2S(=O)(=O)c2ccc(C)cc2)cc1", "note": "(stereo unspecified)", "values": [{"measurement": "zone of inhibition at 100 µg/disc", "setting": "Penicillium chrysogenum [1]", "value": 13, "unit": "mm"}, {"measurement": "zone of inhibition at 50 µg/disc", "setting": "Penicillium chrysogenum [2]", "value": 10, "unit": "mm"}, {"measurement": "zone of inhibition at 50 µg/disc", "setting": "Aspergillus niger [3]", "value": 8, "unit": "mm"}, {"measurement": "zone of inhibition at 100 µg/disc", "setting": "Aspergillus niger [4]", "value": 9, "unit": "mm"}, {"measurement": "diameter of the inhibition zone (DIZ)", "setting": "Klebsiella pneumoniae [5]", "value": "inactive"}, {"measurement": "diameter of the inhibition zone (DIZ)", "setting": "Klebsiella pneumoniae [6]", "value": "inactive"}, {"measurement": "diameter of the inhibition zone (DIZ)", "setting": "Pseudomonas aeruginosa [7]", "value": "inactive"}, {"measurement": "diameter of the inhibition zone (DIZ)", "setting": "Pseudomonas aeruginosa [8]", "value": "inactive"}, {"measurement": "diameter of the inhibition zone (DIZ)", "setting": "Bacillus subtilis [9]", "value": "inactive"}, {"measurement": "diameter of the inhibition zone (DIZ)", "setting": "Bacillus subtilis [10]", "value": "inactive"}, {"measurement": "diameter of the inhibition zone (DIZ)", "setting": "Staphylococcus aureus [11]", "value": "inactive"}, {"measurement": "diameter of the inhibition zone (DIZ)", "setting": "Staphylococcus aureus [12]", "value": "inactive"}]}
{"smiles": "CC(=O)N1CCN(c2ccc(OCC3COC(Cn4ccnc4)(c4ccc(Cl)cc4Cl)O3)cc2)CC1", "note": "(stereo unspecified) [KETOCONAZOLE]", "values": [{"measurement": "MIC", "setting": "Penicillium chrysogenum [13]", "value": 12.5, "unit": "µg/mL"}, {"measurement": "MIC", "setting": "Aspergillus niger [14]", "value": 6.25, "unit": "µg/mL"}, {"measurement": "zone of inhibition at 100 µg/disc", "setting": "Penicillium chrysogenum [1]", "value": 38, "unit": "mm"}, {"measurement": "zone of inhibition at 50 µg/disc", "setting": "Penicillium chrysogenum [2]", "value": 36, "unit": "mm"}, {"measurement": "zone of inhibition at 50 µg/disc", "setting": "Aspergillus niger [3]", "value": 33, "unit": "mm"}, {"measurement": "zone of inhibition at 100 µg/disc", "setting": "Aspergillus niger [4]", "value": 36, "unit": "mm"}]}
{"smiles": "O=S(=O)(c1ccccc1)c1c(-c2ccc(Cl)cc2)nn(-c2ccccc2)c1-c1ccc(-c2c(S(=O)(=O)c3ccccc3)c(-c3ccc(Cl)cc3)nn2-c2ccccc2)cc1", "values": [{"measurement": "zone of inhibition at 100 µg/disc", "setting": "Penicillium chrysogenum [1]", "value": 30, "unit": "mm"}, {"measurement": "zone of inhibition at 50 µg/disc", "setting": "Penicillium chrysogenum [2]", "value": 27, "unit": "mm"}, {"measurement": "zone of inhibition at 50 µg/disc", "setting": "Aspergillus niger [3]", "value": 24, "unit": "mm"}, {"measurement": "zone of inhibition at 100 µg/disc", "setting": "Aspergillus niger [4]", "value": 27, "unit": "mm"}, {"measurement": "zone of inhibition at 100 µg/disc", "setting": "Klebsiella pneumoniae [5]", "value": 23, "unit": "mm"}, {"measurement": "zone of inhibition at 50 µg/disc", "setting": "Klebsiella pneumoniae [6]", "value": 21, "unit": "mm"}, {"measurement": "zone of inhibition at 100 µg/disc", "setting": "Pseudomonas aeruginosa [7]", "value": 19, "unit": "mm"}, {"measurement": "zone of inhibition at 50 µg/disc", "setting": "Pseudomonas aeruginosa [8]", "value": 17, "unit": "mm"}, {"measurement": "zone of inhibition at 100 µg/disc", "setting": "Bacillus subtilis [9]", "value": 31, "unit": "mm"}, {"measurement": "zone of inhibition at 50 µg/disc", "setting": "Bacillus subtilis [10]", "value": 28, "unit": "mm"}, {"measurement": "zone of inhibition at 100 µg/disc", "setting": "Staphylococcus aureus [11]", "value": 25, "unit": "mm"}, {"measurement": "zone of inhibition at 50 µg/disc", "setting": "Staphylococcus aureus [12]", "value": 23, "unit": "mm"}]}
{"smiles": "COc1ccc(-c2nn(-c3ccccc3)c(-c3ccc(-c4c(S(=O)(=O)c5ccc(C)cc5)c(-c5ccc(OC)cc5)nn4-c4ccccc4)cc3)c2S(=O)(=O)c2ccc(C)cc2)cc1", "values": [{"measurement": "zone of inhibition at 100 µg/disc", "setting": "Penicillium chrysogenum [1]", "value": 24, "unit": "mm"}, {"measurement": "zone of inhibition at 50 µg/disc", "setting": "Penicillium chrysogenum [2]", "value": 22, "unit": "mm"}, {"measurement": "zone of inhibition at 50 µg/disc", "setting": "Aspergillus niger [3]", "value": 19, "unit": "mm"}, {"measurement": "zone of inhibition at 100 µg/disc", "setting": "Aspergillus niger [4]", "value": 21, "unit": "mm"}, {"measurement": "zone of inhibition at 100 µg/disc", "setting": "Klebsiella pneumoniae [5]", "value": 15, "unit": "mm"}, {"measurement": "zone of inhibition at 50 µg/disc", "setting": "Klebsiella pneumoniae [6]", "value": 13, "unit": "mm"}, {"measurement": "zone of inhibition at 100 µg/disc", "setting": "Pseudomonas aeruginosa [7]", "value": 13, "unit": "mm"}, {"measurement": "zone of inhibition at 50 µg/disc", "setting": "Pseudomonas aeruginosa [8]", "value": 11, "unit": "mm"}, {"measurement": "zone of inhibition at 100 µg/disc", "setting": "Bacillus subtilis [9]", "value": 22, "unit": "mm"}, {"measurement": "zone of inhibition at 50 µg/disc", "setting": "Bacillus subtilis [10]", "value": 20, "unit": "mm"}, {"measurement": "zone of inhibition at 100 µg/disc", "setting": "Staphylococcus aureus [11]", "value": 18, "unit": "mm"}, {"measurement": "zone of inhibition at 50 µg/disc", "setting": "Staphylococcus aureus [12]", "value": 15, "unit": "mm"}]}
{"smiles": "COc1ccc(C2=NN(c3ccccc3)C(c3ccc(C4C(S(=O)(=O)c5ccccc5)C(c5ccc(OC)cc5)=NN4c4ccccc4)cc3)C2S(=O)(=O)c2ccccc2)cc1", "note": "(stereo unspecified)", "values": [{"measurement": "zone of inhibition at 100 µg/disc", "setting": "Penicillium chrysogenum [1]", "value": 16, "unit": "mm"}, {"measurement": "zone of inhibition at 50 µg/disc", "setting": "Penicillium chrysogenum [2]", "value": 12, "unit": "mm"}, {"measurement": "zone of inhibition at 50 µg/disc", "setting": "Aspergillus niger [3]", "value": 8, "unit": "mm"}, {"measurement": "zone of inhibition at 100 µg/disc", "setting": "Aspergillus niger [4]", "value": 10, "unit": "mm"}, {"measurement": "diameter of the inhibition zone (DIZ)", "setting": "Klebsiella pneumoniae [5]", "value": "inactive"}, {"measurement": "diameter of the inhibition zone (DIZ)", "setting": "Klebsiella pneumoniae [6]", "value": "inactive"}, {"measurement": "diameter of the inhibition zone (DIZ)", "setting": "Pseudomonas aeruginosa [7]", "value": "inactive"}, {"measurement": "diameter of the inhibition zone (DIZ)", "setting": "Pseudomonas aeruginosa [8]", "value": "inactive"}, {"measurement": "diameter of the inhibition zone (DIZ)", "setting": "Bacillus subtilis [9]", "value": "inactive"}, {"measurement": "diameter of the inhibition zone (DIZ)", "setting": "Bacillus subtilis [10]", "value": "inactive"}, {"measurement": "diameter of the inhibition zone (DIZ)", "setting": "Staphylococcus aureus [11]", "value": "inactive"}, {"measurement": "diameter of the inhibition zone (DIZ)", "setting": "Staphylococcus aureus [12]", "value": "inactive"}]}
{"smiles": "Cc1ccc(S(=O)(=O)c2c(-c3ccc(Cl)cc3)nn(-c3ccccc3)c2-c2ccc(-c3c(S(=O)(=O)c4ccc(C)cc4)c(-c4ccc(Cl)cc4)nn3-c3ccccc3)cc2)cc1", "values": [{"measurement": "zone of inhibition at 100 µg/disc", "setting": "Penicillium chrysogenum [1]", "value": 29, "unit": "mm"}, {"measurement": "zone of inhibition at 50 µg/disc", "setting": "Penicillium chrysogenum [2]", "value": 26, "unit": "mm"}, {"measurement": "zone of inhibition at 50 µg/disc", "setting": "Aspergillus niger [3]", "value": 22, "unit": "mm"}, {"measurement": "zone of inhibition at 100 µg/disc", "setting": "Aspergillus niger [4]", "value": 26, "unit": "mm"}, {"measurement": "zone of inhibition at 100 µg/disc", "setting": "Klebsiella pneumoniae [5]", "value": 23, "unit": "mm"}, {"measurement": "zone of inhibition at 50 µg/disc", "setting": "Klebsiella pneumoniae [6]", "value": 21, "unit": "mm"}, {"measurement": "zone of inhibition at 100 µg/disc", "setting": "Pseudomonas aeruginosa [7]", "value": 18, "unit": "mm"}, {"measurement": "zone of inhibition at 50 µg/disc", "setting": "Pseudomonas aeruginosa [8]", "value": 15, "unit": "mm"}, {"measurement": "zone of inhibition at 100 µg/disc", "setting": "Bacillus subtilis [9]", "value": 30, "unit": "mm"}, {"measurement": "zone of inhibition at 50 µg/disc", "setting": "Bacillus subtilis [10]", "value": 28, "unit": "mm"}, {"measurement": "zone of inhibition at 100 µg/disc", "setting": "Staphylococcus aureus [11]", "value": 26, "unit": "mm"}, {"measurement": "zone of inhibition at 50 µg/disc", "setting": "Staphylococcus aureus [12]", "value": 24, "unit": "mm"}]}
